pIC50: −log10 of the molar value.
Key:
Type in all cases: cell-based
SK-BR-3 cells = assay: In vitro cell viability (CellTiter-Glo), SK-BR-3 cells; details: Homo sapiens, read-out: IC50 free drug
Description: (§1) Generally, the cytotoxic or cytostatic activity of an antibody-drug conjugate (ADC) is measured by: exposing mammalian cells having receptor proteins, e.g. HER2, to the antibody of the ADC in a cell culture medium; culturing the cells for a period from about 6 hours to about 5 days; and measuring cell viability. Cell-based in vitro assays were used to measure viability (proliferation), cytotoxicity, and induction of apoptosis (caspase activation) of the ADC of the invention.
(§2) The CellTiter-Glo® Luminescent Cell Viability Assay is a commercially available (Promega Corp., Madison, Wis.), homogeneous assay method based on the recombinant expression of Coleoptera luciferase (U.S. Pat. Nos. 5,583,024; 5,674,713; 5,700,670). This cell proliferation assay determines the number of viable cells in culture based on quantitation of the ATP present, an indicator of metabolically active cells (Crouch et al (1993) J. Immunol. Meth. 160:81-88; U.S. Pat. No. 6,602,677). […]
(§3) Inhibition of cell proliferation in vitro may be assayed using the CellTiter-Glo™ Luminescent Cell Viability Assay, an embodiment of which is detailed as Example 6. Such assay determines the number of viable cells in culture based on quantitation of ATP present, which is an indication of metabolically active cells (Crouch et al. (1993) J. Immunol. Meth. 160:81-88; U.S. Pat. No. 6,602,677). […]

MES-SA = assay: In vitro efficacy of free drug silvestrol compounds, MES-SA; details: Homo sapiens; MES-SA cell line
Source text: as §2, with “6,602,677). The CellTiter-Glo® Assay was conducted in 96 well format, making it amenable to automated high-throughput screening (HTS) (Cree et al (1995) AntiCancer Drugs 6:398-404). The homogeneous assay procedure involves adding the single reagent (CellTiter-Glo® Reagent) directly to cells cultured in serum-supplemented medium.” for “6,602,677).”
(§4) Inhibition of cell proliferation in vitro may be assayed using the CellTiter-Glo™ Luminescent Cell Viability Assay, an embodiment of which is detailed as Example 6. Such assay determines the number of viable cells in culture based on quantitation of ATP present, which is an indication of metabolically active cells (Crouch et al. (1993) J. Immunol. Meth. 160:81-88; U.S. Pat. No. 6,602,677). […] Data can be recorded by luminometer or CCD camera imaging device. The luminescence output is expressed as relative light units (RLU).

SW 900 = assay: In vitro efficacy of free drug silvestrol compounds, SW 900; details: Homo sapiens, SW900; SW 900 cell line
Source text: as §2, with “6,602,677). The CellTiter-Glo® Assay was conducted in 96 well format, making it amenable to automated high-throughput screening (HTS) (Cree et al (1995) AntiCancer Drugs 6:398-404). The homogeneous assay procedure involves adding the single reagent (CellTiter-Glo® Reagent) directly to cells cultured in serum-supplemented medium.” for “6,602,677).”
as §4

KPL-4 cells = assay: In vitro cell viability (CellTiter-Glo), KPL-4 cells; details: Homo sapiens, KPL4; KPL-4 cell line; read-out: IC50 (nM) free drug
Description: as §1, §2, §3

BJAB = assay: In vitro efficacy of free drug silvestrol compounds, BJAB; details: Homo sapiens; BJAB cell line
Source text: as §2, with “6,602,677). The CellTiter-Glo® Assay was conducted in 96 well format, making it amenable to automated high-throughput screening (HTS) (Cree et al (1995) AntiCancer Drugs 6:398-404). The homogeneous assay procedure involves adding the single reagent (CellTiter-Glo® Reagent) directly to cells cultured in serum-supplemented medium.” for “6,602,677).”
as §4

HCC1569 X2 = assay: In vitro efficacy of free drug silvestrol compounds, HCC1569 X2; details: Homo sapiens; HCC1569 X2 cell line
Source text: as §2, with “6,602,677). The CellTiter-Glo® Assay was conducted in 96 well format, making it amenable to automated high-throughput screening (HTS) (Cree et al (1995) AntiCancer Drugs 6:398-404). The homogeneous assay procedure involves adding the single reagent (CellTiter-Glo® Reagent) directly to cells cultured in serum-supplemented medium.” for “6,602,677).”
as §4, with “(RLU). […]” for “(RLU).”

NCI-H1781 = assay: In vitro efficacy of free drug silvestrol compounds, NCI-H1781; details: NCI-H1781 cell line
Source text: as §2, with “6,602,677). The CellTiter-Glo® Assay was conducted in 96 well format, making it amenable to automated high-throughput screening (HTS) (Cree et al (1995) AntiCancer Drugs 6:398-404). The homogeneous assay procedure involves adding the single reagent (CellTiter-Glo® Reagent) directly to cells cultured in serum-supplemented medium.” for “6,602,677).”
as §4

MES-SA/Dx5 = assay: In vitro efficacy of free drug silvestrol compounds, MES-SA/Dx5; details: Homo sapiens; MES-SA/Dx5 cell line
Source text: as §2, with “6,602,677). The CellTiter-Glo® Assay was conducted in 96 well format, making it amenable to automated high-throughput screening (HTS) (Cree et al (1995) AntiCancer Drugs 6:398-404). The homogeneous assay procedure involves adding the single reagent (CellTiter-Glo® Reagent) directly to cells cultured in serum-supplemented medium.” for “6,602,677).”
as §4

T-47D = assay: In vitro efficacy of free drug silvestrol compounds, T-47D; details: Homo sapiens, T47D; T-47D cell line
Source text: as §2, with “6,602,677). The CellTiter-Glo® Assay was conducted in 96 well format, making it amenable to automated high-throughput screening (HTS) (Cree et al (1995) AntiCancer Drugs 6:398-404). The homogeneous assay procedure involves adding the single reagent (CellTiter-Glo® Reagent) directly to cells cultured in serum-supplemented medium.” for “6,602,677).”
as §4

HCC1937 = assay: In vitro efficacy of free drug silvestrol compounds, HCC1937; details: Homo sapiens; HCC1937 cell line
Source text: as §2, with “6,602,677). The CellTiter-Glo® Assay was conducted in 96 well format, making it amenable to automated high-throughput screening (HTS) (Cree et al (1995) AntiCancer Drugs 6:398-404). The homogeneous assay procedure involves adding the single reagent (CellTiter-Glo® Reagent) directly to cells cultured in serum-supplemented medium.” for “6,602,677).”
as §4

cell lines of Table 7 = assay: In vitro efficacy of free drug silvestrol compounds, summary over cell lines of Table 7; details: summary of Table 7
Source text: The CellTiter-Glo® Luminescent Cell Viability Assay is a commercially available (Promega Corp., Madison, Wis.), homogeneous assay method based on the recombinant expression of Coleoptera luciferase (U.S. Pat. Nos. 5,583,024; 5,674,713; 5,700,670). This cell proliferation assay determines the number of viable cells in culture based on quantitation of the ATP present, an indicator of metabolically active cells (Crouch et al (1993) J. Immunol. Meth. 160:81-88; U.S. Pat. No. 6,602,677). The CellTiter-Glo® Assay was conducted in 96 well format, making it amenable to automated high-throughput screening (HTS) (Cree et al (1995) AntiCancer Drugs 6:398-404). The homogeneous assay procedure involves adding the single reagent (CellTiter-Glo® Reagent) directly to cells cultured in serum-supplemented medium. Cell washing, removal of medium and multiple pipetting steps are not required. The system detects as few as 15 cells/well in a 384-well format in 10 minutes after adding reagent and mixing. The cells may be treated continuously with ADC, or they may be treated and separated from ADC.
Inhibition of cell proliferation in vitro may be assayed using the CellTiter-Glo™ Luminescent Cell Viability Assay, an embodiment of which is detailed as Example 6. Such assay determines the number of viable cells in culture based on quantitation of ATP present, which is an indication of metabolically active cells (Crouch et al. (1993) J. Immunol. Meth. 160:81-88; U.S. Pat. No. 6,602,677). The assay may be conducted in 96- or 384-well format, making it amenable to automated high-throughput screening (HTS). See Cree et al. (1995) AntiCancer Drugs 6:398-404. The assay procedure involves adding a single reagent (CellTiter-Glo® Reagent) directly to cultured cells. […] The luminescent signal is proportional to the amount of ATP present, which is directly proportional to the number of viable cells present in culture. Data can be recorded by luminometer or CCD camera imaging device. The luminescence output is expressed as relative light units (RLU). […]

Row | SMILES | pIC50 (SK-BR-3 cells) | IC50 (MES-SA) [nM] | IC50 (SW 900) [nM] | IC50 (KPL-4 cells) [nM] | IC50 (BJAB) [nM] | IC50 (HCC1569 X2) [nM] | IC50 (NCI-H1781) [nM] | IC50 (MES-SA/Dx5) [nM] | IC50 (T-47D) [nM] | IC50 (HCC1937) [nM] | IC50s of free drug, in words (cell lines of Table 7) | activity of free drug in vitro (cell lines of Table 7)
1 | COC(=O)[C@H]1[C@@H](O)[C@@]2(O)c3c(OC)cc(O[C@@H]4O[C@@H](CCN)CO[C@H]4OC)cc3O[C@@]2(c2ccc(OC)cc2)[C@@H]1c1ccccc1 [amino silvestrol analog, (1R,2R,3S,3aR,8bS)-methyl 6-(((2S,3R,6S)-6-(2-aminoethyl)-3-methoxy-1,4-dioxan-2-yl)oxy)-1,8b-dihydroxy-8-methoxy-3a-(4-methoxyphenyl)-3-phenyl-2,3,3a,8b-tetrahydro-1H-cyclopenta[b]benzofuran-2-carboxylate] | 8.80 | 1.1 | 2.9 | 1.2 | 0.81 | 1.3 | 1 | > 100 | 1 | 0.66 | pM or low nM | active
2 | COc1ccc([C@@]23Oc4cc(O[C@@H]5O[C@@H]([C@H](O)CO)CO[C@H]5OC)cc(OC)c4[C@]2(O)[C@H](O)[C@H](C(=O)NCCN)[C@H]3c2ccccc2)cc1 [silvestrol amine, (1R,2R,3S,3aR,8bS)-N-(2-aminoethyl)-6-(((2S,3R,6R)-6-((R)-1,2-dihydroxyethyl)-3-methoxy-1,4-dioxan-2-yl)oxy)-1,8b-dihydroxy-8-methoxy-3a-(4-methoxyphenyl)-3-phenyl-2,3,3a,8b-tetrahydro-1H-cyclopenta[b]benzofuran-2-carboxamide] |  | > 100 | > 200 | > 200 | > 200 | > 200 | > 200 | > 200 | > 200 | > 200 |  | inactive

From patent publication US11648315B2, “Silvestrol antibody-drug conjugates and methods of use” (Genentech, Inc., priority 2016, dated 2023)
